Consider one compound from patent publication US12478694B2, “H2O2-responsive crosslinking near-infrared molecular probe for tumor microenvironment and use therefor” (SOOCHOW UNIVERSITY, priority 2019, dated 2025).

Series [1] in a line: Ultraviolet absorption spectrum and fluorescence spectrum of the probe. The settings on record: probe diluted with methanol to 1 μM. The format is physicochemical. The procedure: (§1) After diluting the H2O2 responsive NIR molecular probe prepared in Example 1 with methanol to a concentration of 1 μM, an ultraviolet-visible absorption spectrometer and a steady-state/transient fluorescence spectrometer were used to measure the ultraviolet absorption spectrum and fluorescence of the probe. Spectrum: The cytotoxicity of the probe to 4T1 was investigated by MTT (thiazole blue) colorimetry.

Another series concerns 4T1. Kind of series: Cytotoxicity of the probe by MTT (thiazole blue) colorimetry. The format is cell-based, mouse. The conditions noted are these: 4T1 cells. The procedure: as §1
Series [2] deals with 4T1 cells. Kind of series: Co-localization of intracellular probe and intracellular mitochondria. The format is cell-based, mouse. The conditions noted are these: 5 μM probe, incubated 12 hours. The procedure:
Based on the method described in Example 2, 4T1 cells were seeded in a confocal small dish with 1.5×10^4 cells per well, placed in an incubator for 24 hours, and then the culture medium was discarded. The H2O2 responsive NIR molecular probe prepared in Example 1 was diluted with a culture medium to a concentration of 5 μM, and then added to a 4T1 cell culture dish, and placed in a cell incubator to incubate for 12 hours. After the probe and 4T1 cell incubation time was over, the cells were incubated with mitochondrial dye and Hoechst 33342 respectively, and the co-localization of the probe with mitochondria in 4T1 cells at the same time was observed using a confocal microscope.

In series [3] the test system is 4T1 cells. Kind of series: Retention of the probe in 4T1 cells treated with hydrogen peroxide, confocal fluorescence. The format is cell-based, mouse. The procedure:
The 4T1 cells were first treated with 100 μM hydrogen peroxide for 15 min, and then the H2O2 responsive NIR molecular probe DATC prepared in Example 1 was diluted into the cell culture medium, and then added to the 4T1 cell culture dish and incubated (The probe concentration is 5 μM). The sulfhydryl group on the protein in 4T1 cells treated with hydrogen oxide will be oxidized to sulfenic acid. When the probe entered into the tumor cell, the group 3,5-dioxocyclohexane carboxylic acid will interact with sulfenic acid cross-linking forms a CS covalent bond, so that the probe molecule is firmly connected to the macromolecular protein in the tumor cell, thereby prolonging the residence time of the molecular probe in the tumor cell, and improving the imaging effect of the probe molecule.
Based on the method described in Example 2, 4T1 cells were seeded in a confocal small dish, 1.5×10^4 cells per well, and placed in an incubator for 24 hours. After diluting hydrogen peroxide to 100 μM with cell culture medium, it was added to a culture dish of 4T1 cells and incubated for 15 minutes, and then the culture medium was discarded. The H2O2 responsive NIR molecular probe prepared in Example 1 was diluted with a culture medium to a concentration of 5 μM, and then added to the 4T1 cell culture dish, and placed in a cell incubator for 8 hours. After incubation of the probe and 4T1 cell, added new cell culture medium and continue culturing in the incubator for 4h, 8h, 12h and 24h. Then stained the nucleus with Hoechst33342 dye solution, and observed the fluorescence in 4T1 cells at different times after hydrogen peroxide treatment with a laser confocal microscope. The fluorescent probe (TC) without 3,5-dioxocyclohexane carboxylic acid was used as a control example, and a unified experimental method was adopted.

Series [4] deals with 4T1 cells. Nature of the series: Immunofluorescence of the probes in hydrogen peroxide treated 4T1 cells after re-culturing for 12 hours. In kind it is cell-based, mouse. The conditions noted are these: 100 μM H2O2 15 min, 5 μM probe 8 h, re-culture 12 hours. The procedure:
Based on the method described in Example 2, 4T1 cells were seeded in a confocal small dish, 1.5×10^4 cells per well, and placed in an incubator for 24 hours. After diluting hydrogen peroxide to 100 μM with cell culture medium, it was added to a culture dish of 4T1 cells and incubated for 15 minutes, and then the culture medium was discarded. The H2O2 responsive NIR molecular probe prepared in Example 1 was diluted with a culture medium to a concentration of 5 μM, and then added to a 4T1 cell culture dish, and placed in a cell incubator for 8 hours. After the incubation time of the probe and 4T1 cells is over, add new cell culture medium and continue culturing in the incubator for 12 hours. Subsequently, the cells were fixed with 4% paraformaldehyde at room temperature for 15 minutes, and then washed with PBS; secondly, 0.5% Trition-100 and 4T1 cells were incubated at room temperature for 5 minutes; the antibody anticysteine sulfenic acid was incubated at room temperature. After 1 hour, the antibody was washed with PBS, and then incubated at 37° C. for 30 minutes with goat anti-rabbit-Cy3. Finally, the nucleus was stained with Hoechst 33342 staining solution. […] The fluorescent probe (TC) without 3,5-dioxocyclohexane carboxylic acid was used as a control, and a unified experimental method was adopted.

Series [5] has as its system 4T1 mouse breast cancer tumor in BALB/c/nu female nude mice. Nature of the series: NIR fluorescence imaging of the probe at the tumor site in mice. In kind it is in vivo. The settings on record: intratumoral injection, 100 μM, 50 μL. The procedure: BALB/c/nu female nude mice inoculated with 4T1 mouse breast cancer cells were randomly divided into two groups with 5 mice in each group. After the tumor on the right forelimb of the mouse grows up, the probes DATC and TC are injected into the tumors of the two groups of nude mice by intratumoral injection, at a concentration of 100 μM (50 μL/each). Then put the probe-injected mice in the small animal IVIS Lumina XRMS live imaging system to observe the changes in the fluorescence intensity of the probe in the nude mouse tumor over time, and calculate the experimental group probe and the control group through the IVIS live imaging analysis software The fluorescence intensity of the probe at different time points at the tumor site in nude mice.

For `C[N+]1=C(/C=C/C=C/C=C2/N(CCCCCC(=O)NCCCn3cc(CNC(=O)[C@H](CCCCNC(=O)C4CC(=O)CC(=O)C4)NC(=O)CCC[P+](c4ccccc4)(c4ccccc4)c4ccccc4)nn3)c3ccc(S(=O)(=O)O)cc3C2(C)C)C(C)(C)c2cc(S(=O)(=O)O)ccc21` [DATC], in series [1] (UV absorption spectrum), the max absorption peak was determined as 646 nm. In series [1] (fluorescence spectrum), this compound displayed a maximum emission of 670 nm. The “killing effect on the cells as the concentration increases” value in the series with 4T1 is “no killing effect on the cells”. In the series with 4T1 cells [2], the “co-localization of the probe with mitochondria” value was “basically coincide”. The “red fluorescence intensity in 4T1 cells 8 hours after washing off the probe, versus control probe” value in the series with 4T1 cells [3] (100 μM H2O2 15 min, 5 μM probe 8 h, re-culture 8 h) was “significantly stronger”. Besides, the “fluorescence signal in 4T1 cells 24h later” value with 4T1 cells [3] (100 μM H2O2 15 min, 5 μM probe 8 h, re-culture 24 h) is listed as “strong fluorescence signal”. Further, the “time the probe can stay in the cell” value in the series on 4T1 cells [3] (fluorescence quantitative data, H2O2-treated 4T1 cells, 5 μM probe) is not below 24 h. The “content / fluorescent signal of probe in cells” value in the series on 4T1 cells [4] is listed as “relatively high”. The “duration of the fluorescent signal at the tumor site” value in series [5] is 36 h. In addition, the “fluorescence signal of the probe at the tumor site at 2h” value in series [5] (2h) is “only slightly decreased”. In addition, the “fluorescence signal of the probe at the tumor site at 12h” value in series [5] (12h) is recorded as “obvious fluorescence signal”.
